Publication PMC7104201 (iScience, 2020)

Biological target: CatB (Homo sapiens, UniProt P07858)
Type: biochemical
Settings: pH 5

CA-074 methyl ester [CatB inhibitor]
blocking of CatB-dependent cleavage of EBOV GP: effectively blocked
